Measured values: US20240101572A1, “DIHYDROOXADIAZINONE COMPOUND AND PHARMACEUTICAL USE THEREOF” (Japan Tobacco Inc., priority 2022, published 2024)
Read-outs that look alike come from different tables or passages of the source.

Tests used:
full-length human PLD1 = full-length human PLD1 (Homo sapiens (Human), UniProt Q13393); test: Evaluation of human PLD1 enzyme inhibitory activity (Amplex Red / choline oxidase fluorescence); assay type: biochemical
Procedure, shortened: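 Fluorescence read-out couples choline to Amplex Red via choline oxidase and peroxidase after a 60 min room-temperature reaction. Enzyme: FLAG-tagged full-length human PLD1 from Expi293F cells, anti-FLAG purified; substrate diheptanoyl phosphatidylcholine; HEPES pH 7.5 assay buffer with 0.01% NP-40, 0.1% BSA, 5% DMSO final.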

full-length human PLD2 = full-length human PLD2 (Homo sapiens (Human), UniProt O14939); test: Evaluation of human PLD2 enzyme inhibitory activity (Amplex Red / choline oxidase fluorescence); assay type: biochemical
Procedure, shortened: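 Released choline was read by Amplex Red fluorescence coupled to choline oxidase and HRP after a 60 min room-temperature reaction. Substrate was diheptanoyl phosphatidylcholine, added as a 6 mmol/L solution, and enzyme was FLAG-tagged full-length human PLD2 from Expi293F, added as a 6 nmol/L solution. Buffer was 50 mM HEPES pH 7.5 with 5% final DMSO.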

[1] = full-length human PLD1 enzyme, read-out: PLD1 IC50
[2] = full-length human PLD2 enzyme, read-out: PLD2 IC50

Chain of full-length human PLD2 (O14939 whole entry): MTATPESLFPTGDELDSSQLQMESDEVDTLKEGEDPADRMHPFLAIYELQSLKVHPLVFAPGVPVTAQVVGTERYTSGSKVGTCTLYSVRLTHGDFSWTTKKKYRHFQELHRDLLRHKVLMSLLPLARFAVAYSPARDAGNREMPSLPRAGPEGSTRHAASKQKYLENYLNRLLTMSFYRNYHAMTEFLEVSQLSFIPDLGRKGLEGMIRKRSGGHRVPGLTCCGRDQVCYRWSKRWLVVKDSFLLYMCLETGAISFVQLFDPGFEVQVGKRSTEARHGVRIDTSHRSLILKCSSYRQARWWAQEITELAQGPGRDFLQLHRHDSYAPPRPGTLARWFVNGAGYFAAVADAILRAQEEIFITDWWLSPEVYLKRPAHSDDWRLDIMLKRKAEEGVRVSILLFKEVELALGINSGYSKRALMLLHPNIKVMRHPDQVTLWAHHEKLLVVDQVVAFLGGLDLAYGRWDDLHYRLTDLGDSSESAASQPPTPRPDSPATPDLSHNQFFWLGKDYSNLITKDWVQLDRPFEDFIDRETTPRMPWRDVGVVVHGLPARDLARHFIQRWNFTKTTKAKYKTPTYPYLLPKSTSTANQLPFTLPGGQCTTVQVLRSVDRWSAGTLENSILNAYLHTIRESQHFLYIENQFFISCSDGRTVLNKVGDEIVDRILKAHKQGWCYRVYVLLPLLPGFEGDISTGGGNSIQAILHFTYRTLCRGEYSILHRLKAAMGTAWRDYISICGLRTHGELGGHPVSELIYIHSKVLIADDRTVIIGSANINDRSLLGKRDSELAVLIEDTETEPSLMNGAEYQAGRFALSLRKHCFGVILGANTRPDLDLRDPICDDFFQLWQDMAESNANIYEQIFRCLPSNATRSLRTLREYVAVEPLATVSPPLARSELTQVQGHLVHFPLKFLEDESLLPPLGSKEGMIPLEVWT
Chain of full-length human PLD1 (Q13393 other isoform, or with tags, fused parts or gaps): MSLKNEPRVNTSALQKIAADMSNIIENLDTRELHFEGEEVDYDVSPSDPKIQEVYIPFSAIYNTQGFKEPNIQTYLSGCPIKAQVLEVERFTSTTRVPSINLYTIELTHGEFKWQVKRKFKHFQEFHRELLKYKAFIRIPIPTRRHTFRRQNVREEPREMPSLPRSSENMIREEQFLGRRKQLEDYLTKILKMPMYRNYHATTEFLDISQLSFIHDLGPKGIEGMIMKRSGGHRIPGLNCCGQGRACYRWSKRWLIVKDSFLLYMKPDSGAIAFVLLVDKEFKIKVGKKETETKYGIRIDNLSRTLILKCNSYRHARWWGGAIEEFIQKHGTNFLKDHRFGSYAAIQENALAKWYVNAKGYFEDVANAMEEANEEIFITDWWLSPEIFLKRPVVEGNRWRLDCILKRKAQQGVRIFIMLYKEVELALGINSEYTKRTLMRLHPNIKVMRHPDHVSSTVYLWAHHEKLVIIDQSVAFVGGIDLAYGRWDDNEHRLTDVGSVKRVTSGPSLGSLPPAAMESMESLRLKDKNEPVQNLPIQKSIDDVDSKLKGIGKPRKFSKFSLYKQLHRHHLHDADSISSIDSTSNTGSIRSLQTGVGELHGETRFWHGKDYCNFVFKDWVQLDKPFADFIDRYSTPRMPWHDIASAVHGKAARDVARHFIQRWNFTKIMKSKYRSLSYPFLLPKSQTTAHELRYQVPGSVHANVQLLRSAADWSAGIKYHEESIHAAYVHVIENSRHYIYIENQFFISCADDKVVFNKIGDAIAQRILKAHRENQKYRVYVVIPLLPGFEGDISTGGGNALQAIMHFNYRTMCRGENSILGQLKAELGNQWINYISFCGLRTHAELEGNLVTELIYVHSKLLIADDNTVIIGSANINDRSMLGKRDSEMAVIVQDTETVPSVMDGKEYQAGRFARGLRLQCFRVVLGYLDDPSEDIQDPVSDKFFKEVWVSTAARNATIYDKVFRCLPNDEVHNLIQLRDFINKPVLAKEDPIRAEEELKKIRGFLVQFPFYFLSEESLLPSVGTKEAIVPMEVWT

Structure (SMILES) | IC50 (full-length human PLD1; [1]) [nM] | IC50 (full-length human PLD2; [2]) [nM] | IC50 (full-length human PLD1; column 1 of continuation tables 2-12 to 2-14, read-out: human PLD1 enzyme inhibitory activity IC50) [nM] | IC50 (full-length human PLD2; column 2 of continuation tables 2-12 to 2-14, read-out: human PLD2 enzyme inhibitory activity IC50) [nM]
Cc1cc(C(=O)N[C@@H](C)CN2C[C@H]3CC[C@@H](C2)[C@@]32OC(=O)NN=C2c2ccc(F)cc2Cl)[nH]n1 [Example 197] | 26 | < 10 |  | 
C[C@@H](CN1CCC2(CC1)OC(=O)NN=C2c1cc(C#N)ccc1Br)NC(=O)c1cn(C)cn1 [Example 2-054] | 37 | < 10 |  | 
Cc1cc(Br)ccc1C1=NNC(=O)O[C@]12CC[C@@H](C[C@H](C)NC(=O)C(=O)NC1CC1)CC2 [Example 209] | 18 | 18 |  | 
CNC(=O)C(=O)N[C@@H](C)C[C@H]1CC[C@]2(CC1)OC(=O)NN=C2c1cnc(N2C[C@@H]3C[C@H]2CO3)cc1C [Example 268] | 30 | < 10 |  | 
C[C@@H](CN1CCC2(CC1)OC(=O)N(C(=O)NC1CC1)N=C2c1ccc(F)cc1Br)NC(=O)NC1CC1 [Example 190] | 642 | 776 |  | 
CNC(=O)C(=O)N[C@@H](C)C[C@]1(F)CC[C@@]2(CC1)OC(=O)NN=C2c1cc(C#N)ccc1Br [Example 310] | 14 | < 10 |  | 
CNC(=O)C(=O)N[C@@H](C)C[C@H]1CC[C@]2(CC1)OC(=O)NN=C2c1cnc(C(F)(F)F)cc1C [Example 174] | 42 | 17 |  | 
CNC(=O)C(=O)N[C@@H](C)C[C@H]1CC[C@]2(CC1)OC(=O)NN=C2c1cnc(C#N)cc1C [Example 188] | 44 | 33 |  | 
CNC(=O)C(=O)N[C@@H](C)C[C@H]1CC[C@]2(CC1)OC(=O)NN=C2c1ccccc1Br [Example 26] | < 10 | < 10 |  | 
CNC1(C(=O)N[C@@H](C)C[C@H]2CC[C@]3(CC2)OC(=O)NN=C3c2ccc(F)cc2Br)COC1 [Example 124] | 638 | 2740 |  | 
COc1cc(C)c(C2=NNC(=O)O[C@]23CC[C@@H](C[C@H](C)NC(=O)N2CCn4nncc4C2)CC3)cn1 [Example 235] | 35 | 13 |  | 
CNC(=O)C(=O)N[C@H](C)CN1CCC2(CC1)OC(=O)NN=C2c1ccc(F)cc1Br [Example 2-011] | 2110 | 2940 |  | 
CNC(=O)C(=O)N[C@@H](C)CN1CCC2(CC1)OC(=O)NN=C2c1cccn2nccc12 [Example 2-039] | 153 | 264 |  | 
C[C@@H](C[C@H]1CC[C@]2(CC1)OC(=O)NN=C2c1ccc(F)cc1I)NC(=O)C(=O)NC1CC1 [Example 177] | 10 | < 10 |  | 
C[C@@H](C[C@H]1CC[C@]2(CC1)OC(=O)NN=C2c1cc(OCC(F)(F)F)ccc1Br)NC(=O)C(=O)NC1CC1 [Example 297] | 13 | < 10 |  | 
CSc1ccc(C2=NNC(=O)OC23CCN(C[C@H](C)NC(=O)c2cc4cc(F)ccc4o2)CC3)c(Cl)c1 [Example 115] | 15 | < 10 |  | 
C[C@@H](C[C@H]1CC[C@]2(CC1)OC(=O)NN=C2c1ccccc1S(C)(=O)=O)NC(=O)c1cc(Cl)no1 [Example 78] | 350 | 252 |  | 
CNC(=O)C(=O)N[C@@H](C)CN1CCC2(CC1)OC(=O)NN=C2c1ccc(C#N)cc1Br [Example 206] | 36 | 13 |  | 
[2H]C([2H])([2H])NC(=O)C(=O)N[C@@H](C)C[C@]1(C#N)CC[C@@]2(CC1)OC(=O)NN=C2c1cc(OC(F)F)c(F)cc1Br [Example 2-138] |  |  | 14 | < 10
C[C@@H](C[C@H]1CC[C@]2(CC1)OC(=O)NN=C2c1ccc(S(C)(=O)=O)cc1Br)NC(=O)c1ccccc1 [Example 49] | 31 | 11 |  | 
C[C@@H](CN1CCC2(CC1)OC(=O)NN=C2c1cc(C#N)ccc1Br)NC(=O)C1CCCO1 (mixture of isomers) [Example 2-048] | 644 | 1010 |  | 

Structure (SMILES) | IC50 (full-length human PLD1; [1]) [nM] | IC50 (full-length human PLD2; [2]) [nM] | IC50 (full-length human PLD1; column 1 of continuation tables 2-12 to 2-14, read-out: human PLD1 enzyme inhibitory activity IC50) [nM] | IC50 (full-length human PLD2; column 2 of continuation tables 2-12 to 2-14, read-out: human PLD2 enzyme inhibitory activity IC50) [nM]
Cc1cc(N2CCOCC2)ccc1C1=NNC(=O)O[C@]12CC[C@@H](C[C@H](C)NC(=O)NC1CC1)CC2 [Example 229] | 197 | 310 |  | 
C[C@@H](C[C@H]1CC[C@]2(CC1)OC(=O)NN=C2c1ccc(F)cc1Br)NC(=O)c1cc(Cl)no1 [Example 37] | < 10 | < 10 |  | 
Cc1cc(C(=O)N[C@@H](C)CN2CCC3(CC2)OC(=O)NN=C3c2ccc(C#N)cc2C(F)(F)F)[nH]n1 [Example 326] | 54 | 38 |  | 
C[C@@H](C[C@H]1CC[C@]2(CC1)OC(=O)NN=C2c1cc(C#N)ccc1Br)NC(=O)c1cc(C2CC2)n[nH]1 [Example 2-069] | < 10 | < 10 |  | 
Cc1cc(F)ccc1C1=NNC(=O)O[C@]12CC[C@@H](C[C@H](C)NC(=O)N1CC[C@H](c3ccccc3)C1)CC2 [Example 137] | 505 | 1590 |  | 
CNC(=O)C(=O)N[C@@H](C)CN1CCC2(CC1)OC(=O)NN=C2c1cc(C#N)ccc1Br [Example 300] | 38 | < 10 |  | 
CNC(=O)C(=O)N[C@@H](C)C[C@H]1CC[C@]2(CC1)OC(=O)NN=C2c1cccnc1 [Example 17] | 816 | 1040 |  | 
CC(=O)N[C@@H](C)C[C@H]1CC[C@]2(CC1)OC(=O)NN=C2c1ccc(OC(F)F)cc1Br [Example 141] | 141 | 164 |  | 
C[C@@H](C[C@H]1CC[C@]2(CC1)OC(=O)NN=C2c1ccc(F)cc1Br)NC(=O)N1CCOC2(CC2)C1 [Example 283] | 43 | 48 |  | 
Cc1cc(C(=O)N[C@@H](C)C[C@H]2CC[C@]3(CC2)OC(=O)NN=C3c2cnc(N3C[C@@H]4C[C@H]3CO4)cc2C)[nH]n1 [Example 250] | 22 | < 10 |  | 
CNC(=O)C(=O)N[C@@H](C)C[C@H]1CC[C@]2(CC1)OC(=O)NN=C2c1ccc(F)cc1OC [Example 54] | 20 | < 10 |  | 
C[C@@H](CN1CCC2(CC1)OC(=O)NN=C2c1cc(C#N)ccc1Br)NC(=O)/C=C/C(F)(F)F [Example 2-003] | 38 | 12 |  | 
CNC(=O)C(=O)N[C@@H](C)C[C@H]1CC[C@]2(CC1)OC(=O)NN=C2c1cnc(N2CCC(F)(F)CC2)cc1Cl [Example 274] | 17 | < 10 |  | 
Cc1ccc(C(=O)N[C@@H](C)C[C@H]2CC[C@]3(CC2)OC(=O)NN=C3c2ccc(F)cc2Br)nn1 [Example 252] | 174 | 335 |  | 
CNC(=O)C(=O)N[C@@H](C)C(C#N)N1CCC2(CC1)OC(=O)NN=C2c1ccc(F)cc1Br (mixture of isomers) [Example 2-010] | 1010 | 1260 |  | 
C[C@@H](C[C@H]1CC[C@]2(CC1)OC(=O)NN=C2c1ccc(F)cc1Cl)NC(=O)c1cc2cc(S(C)(=O)=O)ccc2[nH]1 [Example 62] | 140 | 223 |  | 
C[C@@H](C[C@H]1CC[C@]2(CC1)OC(=O)NN=C2c1ccc(C#N)cc1Br)NC(=O)N1CCn2nncc2C1 [Example 271] | 18 | < 10 |  | 
Cc1cc(C(=O)N[C@@H](C)C[C@H]2CC[C@]3(CC2)OC(=O)NN=C3c2cc(OC(F)F)ccc2C)[nH]n1 [Example 215] | < 10 | < 10 |  | 
CC(=O)NCC(=O)N[C@@H](C)C[C@H]1CC[C@]2(CC1)OC(=O)NN=C2c1ccc(F)cc1Br [Example 213] | 86 | 115 |  | 
Cc1cc(C(=O)N[C@@H](C)C[C@H]2CC[C@]3(CC2)OC(=O)NN=C3c2cc(OCC(F)(F)F)ccc2Br)[nH]n1 [Example 298] | 15 | < 10 |  | 
